The record followed here is PMC9953468, “In Silico, In Vitro, and Ex Vivo Biological Activity of Some Novel Mebeverine Precursors” (Biomedicines, 2023).

Counter-ions that a name gives are not always drawn. Like-named read-outs stand apart in the source and are kept apart here. Some results are limits rather than exact numbers.

Data set [1] in a line: MTT cell viability assay. It is filed as cell-based. As to conditions: mouse, CCL-1 normal fibroblast cells, CCL-1, normal murine fibroblast cells, read-out: In vitro cytotoxicity (IC50). Here is the method: (§1) In order to evaluate the in vitro biocompatibility of the experimental compounds, a series of cell viability assays were performed against human malignant leukemic cell lines (LAMA-84, K-562) as well as normal murine fibroblast cells (CCL-1). All cell lines were purchased from the German Collection of Microorganisms and Cell Cultures (DSMZ GmbH, Braunschweig, Germany). Cell cultures were cultivated in a growth medium RPMI 1640 supplemented with 10% fetal bovine serum (FBS), 5% L-glutamine, and incubated under standard conditions of 37 °C and 5% humidified CO2 atmosphere.
(§2) The experimental design involved a number of cytotoxicity assays that measured cell growth inhibition by the newly synthesized compounds. Cell viability was evaluated using a standard MTT-based colorimetric assay. Exponential-phased cells were harvested and seeded (100 μL/well) in 96-well plates at the appropriate density (3 × 10^5) for the suspension cultures (LAMA-84 and K-562) and 1.5 × 10^5 for the adherent one (CCL-1). Cells were treated and incubated with various concentrations of the experimental compounds in the concentration range of 400-6.25 µM. After exposure time of 72 h, a filter-sterilized MTT substrate solution (5 mg/mL in PBS) was added to each well of the culture plate. A further 1–4 h incubation allowed for the formation of purple insoluble formazan precipitates. The latter were dissolved in isopropyl alcohol solution containing 5% formic acid prior to absorbance measurement at 550 nm using a microplate reader (Labexim LMR-1). Collected absorbance values were blanked against MTT and isopropanol solution and normalized to the mean value of the untreated control (100% cell viability). Semi-logarithmic “dose–response” curves were constructed and the half-inhibitory concentrations of the screened compounds against each tested cell line were calculated. Values of p ≤ 0.05 were considered statistically significant.

Data set [2] is described as follows: MTT cell viability assay. It is filed as cell-based, human. As to conditions: human, ± SD, read-out: In vitro cytotoxicity (IC50). Here is the method:
as §1, §2
Background: Formazan colour is commonly taken as a measure of viable cells.

In data set [3] the test system is LAMA-84. Kind of data set: MTT cell viability assay. The data set is classed as cell-based, human. As to conditions: LAMA-84, CML in blast crisis (bcr-abl+), 72 h, ± SD. As to the method:
as §1, §2

Data set [4] has as its system K-562. The data set is described as follows: MTT cell viability assay. The data set is classed as cell-based, human. Conditions: K-562, Blast phase CML (bcr-abl+), 72 h, ± SD. As to the method:
as §1, §2

For data set [5], the system named is Eighteen tested microorganisms (Gram-positive bacteria, Gram-negative bacteria, yeasts, fungi). Kind of data set: Antimicrobial activity, agar well diffusion method, whole panel. The data set is classed as cell-based. Conditions: whole panel of tested microorganisms, in words. An excerpt: Eighteen tested microorganisms including five Gram-positive bacteria (Bacillus subtilis ATCC 6633, Bacillus amyloliquefaciens 4BCL-YT, Staphylococcus aureus ATCC 25923, Listeria monocytogenes NBIMCC 8632, Enterococcus faecalis ATCC 19433), five Gram-negative bacteria (Salmonella enteritidis ATCC 13076, Klebsiella sp.—clinical isolate, Escherichia coli ATCC 25922, Proteus vulgaris ATCC 6380, Pseudomonas aeruginosa ATCC 9027), two yeasts (Candida albicans NBIMCC 74, Saccharomyces cerevisiae ATCC 9763) and six fungi (Aspergillus niger ATCC 1015, Aspergillus flavus, Penicillium sp., Rhizopus sp., Mucor sp.—plant isolates, Fusarium moniliforme ATCC 38932) from the collection of the Department of Microbiology at the University of Food Technologies—Plovdiv, Bulgaria, were selected for the antimicrobial activity test.
The antimicrobial activity of the samples was determined by the agar well diffusion method. The tested bacteria B. subtilis and B. amyloliquefaciens were cultured on LBG agar at 30 °C. The test bacteria S. aureus, L. monocytogenes, E. faecalis, S. enteritidis, Klebsiella sp., E. coli, P. vulgaris and P. aeruginosa were cultured on LBG agar at 37 °C for 24 h. The yeast C. albicans was cultured on MEA at 37 °C, while S. cerevisiae was cultured on MEA at 30 °C for 24 h. The fungi A. niger, A. flavus, Penicillium sp., Rhizopus sp., Mucor sp., and F. moniliforme were grown on MEA at 30 °C for 7 days or until sporulation.
The inocula of the tested bacteria/yeasts were prepared by homogenization of a small amount of biomass in 5 mL of sterile 0.5% NaCl. […] The number of viable cells and fungal spores was determined using a bacterial counting chamber Thoma (Poly-Optik, GmbH, Bad Blankenburg, Germany). […] Next, the inoculated media were transferred in a quantity of 18 mL in sterile Petri plates (d = 90 mm) (Gosselin™, Hazebrouck, France) and allowed to harden. […]
The antimicrobial activity was determined by measuring the diameter of the inhibition zones around the wells on the 24th and 48th h of incubation. […]
For orientation: A growth-free zone around the sample is the usual read-out of agar diffusion tests.

In data set [6] the test system is 5-HT3 receptor. Kind of data set: Immunohistochemical analysis of 5-HT3 expression in gastric SM strips. Set-up: species or system Wistar rats. Conditions: immunohistochemical staining after 1 h incubation, in words. Here is the method: […] Then, each SM strip was fixed in 10% neutral buffer formalin for 24–48 h and submitted for standard processing with hematoxylin and eosin staining.
The SM fragments from a rat’s gastric wall were fixed in a 10% neutral formalin solution and embedded in paraffin. Paraffin sections of 5 μm thickness were subjected to hematoxylin and eosin (H-E) staining for histochemical analysis.
Sections of the SM fragments from the wall of a rat’s stomach with a thickness of 5 µm were deparaffinized, then subjected to antigenic detection of the epitopes with citrate buffer, and an endogenous peroxidase blockade was made with hydrogen […] 3%, a kit was used to block the endogenous biotin, and a reagent was used to block non-specific binding (Superblock, Scy Tek, Santa Cruz Biotech. Inc. Heidelberg, Germany) follows incubate for 24 h (at 4 °C) with monoclonal mouse anti-5-HT3, next incubated with a secondary antibody: biotinylated anti-rabbit for 10 min at room temperature. The reaction was visualized with 3,3′-diaminobenzidine tetrachloride and counterstained with Mayer’s hematoxylin.
A quantitative and statistical analysis of immunohistochemical reaction using the Olympus DP-Soft image system (version 4.1 for Windows) was carried out on a Microphot-SA (Nikon, Japan) microscope equipped with a Camedia-5050 Z digital camera (Olympus, Japan). The analysis was performed on sections from the SM strips from the stomach of Wistar rats (n = 6 for each group). Five sections of the SM strips were measured, and the percentage of cells expressing 5-HT3 in the circular and longitudinal layer of SM cells, as well as in the myenteric plexus of the stomach, was determined. Each antibody was analyzed for five fields, in each of them the average number of cells with positive unit area response at ×200 magnification.

For the compound `CCN(CCCCOC(=O)c1ccc(OC)c(OC)c1)C(C)Cc1ccc(OC)cc1` (stereo not shown) [Mebeverine hydrochloride, mebeverine hydrochloride, reference compound], the IC50 (as a rule, the concentration needed to halve the response being measured) at 72 h was > 300 µM in data set [1]; 85.4 ± 8.3 µM in data set [2] (K-562 cells (blast phase chronic myeloid leukemia), K-562, Blast phase CML (bcr-abl+)); 72 ± 6.2 µM in data set [2] (LAMA-84, CML in blast crisis (bcr-abl+)). Also, the “In vitro cytotoxicity (IC50)” value in data set [3] and in data set [4] was “just under the hundred-micromolar range” in each case. The antimicrobial activity result in data set [5] is on record as “did not show any antimicrobial activity”. Further, the “5-HT3 expression in SM preparations” value in data set [6] is “weak 5-HT3 expression observed”.
